Assay results: ChEMBL document CHEMBL4699440, “Comprehensive review on the anti-bacterial activity of 1,2,3-triazole hybrids” (Eur J Med Chem, 2019)
≈ marks a conversion by molar mass, not a printed value. Each block holds one compound with its values, some of them ahead of it.

Tests used:
Bacillus subtilis [1] = assay: Antibacterial activity against Bacillus subtilis MTCC 441 incubated for 24 hrs by microdilution method; assay type: functional
Staphylococcus aureus [2] = assay: Antibacterial activity against Staphylococcus aureus MTCC 96 incubated for 24 hrs by microdilution method; assay type: functional
[3] = tested on: Staphylococcus epidermidis; assay: Antibacterial activity against Staphylococcus epidermidis incubated for 24 hrs by microdilution method; assay type: functional
Escherichia coli [4] = assay: Antibacterial activity against Escherichia coli MTCC 443 incubated for 24 hrs by microdilution method; assay type: functional
Pseudomonas aeruginosa [5] = assay: Antibacterial activity against Pseudomonas aeruginosa MTCC 741 incubated for 24 hrs by microdilution method; assay type: functional
Klebsiella pneumoniae = assay: Antibacterial activity against Klebsiella pneumoniae MTCC 618 incubated for 24 hrs by microdilution method; assay type: functional
Escherichia coli [6] = assay: Antibacterial activity against Escherichia coli NCIM-2576 incubated for 8 hrs; assay type: functional
Pseudomonas fluorescens = assay: Antibacterial activity against Pseudomonas fluorescence NCIM-2059 incubated for 8 hrs; assay type: functional
Staphylococcus aureus [7] = assay: Antibacterial activity against Staphylococcus aureus NCIM-2602 incubated for 12 hrs; assay type: functional
Bacillus subtilis [8] = assay: Antibacterial activity against Bacillus subtilis NCIM-2162 incubated for 12 hrs; assay type: functional
Bacillus subtilis [9] = assay: Antibacterial activity against Bacillus subtilis MTCC 441 incubated for 24 hrs by two-fold serial dilution method; assay type: functional
Staphylococcus aureus [10] = assay: Antibacterial activity against Staphylococcus aureus MTCC 7443 incubated for 24 hrs by two-fold serial dilution method; assay type: functional
Pseudomonas aeruginosa [11] = assay: Antibacterial activity against Pseudomonas aeruginosa MTCC 424 incubated for 24 hrs by two-fold serial dilution method; assay type: functional
Aspergillus brasiliensis = assay: Antifungal activity against Aspergillus brasiliensis MTCC 1344 incubated for 7 days by microdilution method; assay type: functional; conditions: MTCC 1344, 168 h, time 7 day
Candida albicans [12] = assay: Antifungal activity against Candida albicans MTCC 227 incubated for 2 days by microdilution method; assay type: functional; conditions: MTCC 227, 48 h, time 2 day
Bacillus cereus = assay: Antibacterial activity against Bacillus cereus RCMB-010067 assessed as diameter of inhibition zone at 5 mg/ml by diffusion technique; assay type: functional; conditions: read-out: DIZ
Staphylococcus aureus [13] = assay: Antibacterial activity against Staphylococcus aureus RCMB-010010 assessed as diameter of inhibition zone at 5 mg/ml by diffusion technique; assay type: functional; conditions: read-out: DIZ
Pseudomonas aeruginosa [14] = assay: Antibacterial activity against Pseudomonas aeruginosa RCMB-010043 assessed as diameter of inhibition zone at 5 mg/ml by diffusion technique; assay type: functional; conditions: read-out: DIZ
Escherichia coli [15] = assay: Antibacterial activity against Escherichia coli RCMB-010052 assessed as diameter of inhibition zone at 5 mg/ml by diffusion technique; assay type: functional; conditions: read-out: DIZ
Aspergillus fumigatus = assay: Antifungal activity against Aspergillus fumigatus RCMB-02568 assessed as diameter of inhibition zone at 5 mg/ml by diffusion technique; assay type: functional; conditions: read-out: DIZ
[16] = tested on: Syncephalastrum racemosum; assay: Antifungal activity against Syncephalastrum racemosum RCMB-05922 assessed as diameter of inhibition zone at 5 mg/ml by diffusion technique; assay type: functional; conditions: read-out: DIZ
Geotrichum candidum = assay: Antifungal activity against Geotrichum candidum RCMB-05097 assessed as diameter of inhibition zone at 5 mg/ml by diffusion technique; assay type: functional; conditions: read-out: DIZ
Candida albicans [17] = assay: Antifungal activity against Candida albicans RCMB-05036 assessed as diameter of inhibition zone at 5 mg/ml by diffusion technique; assay type: functional; conditions: read-out: DIZ
Staphylococcus aureus [18] = assay: Antibacterial activity against methicillin-resistant Staphylococcus aureus; assay type: functional
Staphylococcus aureus [19] = assay: Antibacterial activity against inducibly-resistant Staphylococcus aureus; assay type: functional
Staphylococcus aureus [20] = assay: Antibacterial activity against constitutively-resistant Staphylococcus aureus; assay type: functional
HepG2 = assay: Anticancer activity against human HepG2 cells by MTT assay; assay type: functional, cell-based
Bacillus subtilis [21] = assay: Antibacterial activity against Bacillus subtilis assessed as inhibition zone at 1 mg/ml measured after overnight incubation by disc diffusion method; assay type: functional; conditions: read-out: IZ
Staphylococcus aureus [22] = assay: Antibacterial activity against Staphylococcus aureus assessed as inhibition zone at 1 mg/ml measured after overnight incubation by disc diffusion method; assay type: functional; conditions: read-out: IZ
Pseudomonas aeruginosa [23] = assay: Antibacterial activity against Pseudomonas aeruginosa assessed as inhibition zone at 1 mg/ml measured after overnight incubation by disc diffusion method; assay type: functional; conditions: read-out: IZ
Escherichia coli [24] = assay: Antibacterial activity against Escherichia coli assessed as inhibition zone at 1 mg/ml measured after overnight incubation by disc diffusion method; assay type: functional; conditions: read-out: IZ

- MIC (Bacillus subtilis [1]): 18.8 mg/L (≈ 32 µM)
- MIC (Staphylococcus aureus [2]): 18.8 mg/L (≈ 32 µM)
- MIC [3]: 18.8 mg/L (≈ 32 µM)
- MIC (Escherichia coli [4]): 18.8 mg/L (≈ 32 µM)
- MIC (Pseudomonas aeruginosa [5]): 18.8 mg/L (≈ 32 µM)
- MIC (Klebsiella pneumoniae): 18.8 mg/L (≈ 32 µM)
Compound: O=C(c1cn(Cc2cn(-c3ccc(C(F)(F)F)cc3)nn2)c2cc(N3CCOCC3)c(F)cc2c1=O)N1CCOCC1

- MIC90 (Escherichia coli [6]): 4.5 mg/L (≈ 12.1 µM)
- MIC90 (Pseudomonas fluorescens): 4.5 mg/L (≈ 12.1 µM)
- MIC90 (Staphylococcus aureus [7]): 4.5 mg/L (≈ 12.1 µM)
- MIC90 (Bacillus subtilis [8]): 4.5 mg/L (≈ 12.1 µM)
Compound: Fc1ccc(-c2cnnn2Cc2csc(-c3ccc(Cl)cc3)n2)cc1

- MIC (Bacillus subtilis [9]): 0.0928 µM (≈ 0.05 µg/mL)
- MIC (Staphylococcus aureus [10]): 0.0928 µM (≈ 0.05 µg/mL)
- MIC (Pseudomonas aeruginosa [11]): 0.0928 µM (≈ 0.05 µg/mL)
- MIC (Aspergillus brasiliensis): 0.0928 µM (≈ 0.05 µg/mL)
- MIC (Candida albicans [12]): 0.0928 µM (≈ 0.05 µg/mL)
Compound: O=C(Cn1cc(COc2ccc(OCc3cn(CC(=O)Nc4ccccc4)nn3)cc2)nn1)Nc1ccccc1

Compound: Cc1ccc(-n2nc(N)c(C(=O)NCCNC(=O)c3nn(-c4ccc(C)cc4)nc3N)n2)cc1
- zone of inhibition at 5000 µg/mL (Bacillus cereus): 8.3 mm
- zone of inhibition at 5000 µg/mL (Staphylococcus aureus [13]): 8.3 mm
- zone of inhibition at 5000 µg/mL (Pseudomonas aeruginosa [14]): 8.3 mm
- zone of inhibition at 5000 µg/mL (Escherichia coli [15]): 8.3 mm
- zone of inhibition at 5000 µg/mL (Aspergillus fumigatus): 8.3 mm
- zone of inhibition at 5000 µg/mL [16]: 8.3 mm
- zone of inhibition at 5000 µg/mL (Geotrichum candidum): 8.3 mm
- zone of inhibition at 5000 µg/mL (Candida albicans [17]): 8.3 mm

Compound: CO[C@@H]1[C@@H](O[C@@H]2O[C@H](C)[C@@H](O[C@H]3C[C@@](C)(O)[C@@H](OC(=O)CCCc4cn(CSc5ccccc5)nn4)[C@H](C)O3)[C@H](N(C)C)[C@H]2O)[C@H]2CC(O[Si](C)(C)C(C)(C)C)O[C@@H]1CC(=O)O[C@H](C)CC/C=C/C=C/[C@H](O[C@H]1CC[C@H](N(C)C)[C@@H](C)O1)[C@H](C)C2 (stereo partly specified)
- MIC (Staphylococcus aureus [18]): 8 mg/L (≈ 6.5 µM)
- MIC (Staphylococcus aureus [19]): 8 mg/L (≈ 6.5 µM)
- MIC (Staphylococcus aureus [20]): 8 mg/L (≈ 6.5 µM)

Compound: C[C@@H]1[C@H](O)[C@@H](C)/C=C/C=C/C=C/C=C/C=C/C=C/C=C/[C@H](O[C@@H]2O[C@H](C)[C@@H](O)[C@H](N)[C@@H]2O)C[C@@H]2O[C@](O)(C[C@@H](O)C[C@@H](O)[C@H](O)CC[C@@H](O)C[C@@H](O)CC(=O)O[C@H]1C)C[C@H](O)[C@H]2C(=O)O [AMPHOTERICIN B]
- zone of inhibition at 5000 µg/mL (Aspergillus fumigatus): 19.7 mm
- zone of inhibition at 5000 µg/mL [16]: 19.7 mm
- zone of inhibition at 5000 µg/mL (Geotrichum candidum): 19.7 mm
- zone of inhibition at 5000 µg/mL (Candida albicans [17]): 19.7 mm

Compound: SPIRAMYCIN
- MIC (Staphylococcus aureus [18]): > 256 mg/L
- MIC (Staphylococcus aureus [19]): > 256 mg/L
- MIC (Staphylococcus aureus [20]): > 256 mg/L

Compound: CC[C@]1(O)C[C@@H]2CN(CCc3c([nH]c4ccccc34)[C@@](C(=O)OC)(c3cc4c(cc3OC)N(C)[C@H]3[C@@](O)(C(=O)OC)[C@H](OC(C)=O)[C@]5(CC)C=CCN6CC[C@]43[C@@H]65)C2)C1 [VINBLASTINE]
- IC50 (HepG2): 4.6 mg/L (≈ 5.67 µM)

- MIC90 (Escherichia coli [6]): 4.5 mg/L (≈ 10.5 µM)
- MIC90 (Pseudomonas fluorescens): 4.5 mg/L (≈ 10.5 µM)
- MIC90 (Staphylococcus aureus [7]): 4.5 mg/L (≈ 10.5 µM)
- MIC90 (Bacillus subtilis [8]): 4.5 mg/L (≈ 10.5 µM)
Compound: COc1ccc(-c2cnnn2Cc2csc(-c3ccc(Br)cc3)n2)cc1

Compound: CO[C@@H]1[C@@H](O[C@@H]2O[C@H](C)[C@@H](O[C@H]3C[C@@](C)(O)[C@@H](OC(=O)CCCc4cn(C56CC7CC(CC(C7)C5)C6)nn4)[C@H](C)O3)[C@H](N(C)C)[C@H]2O)[C@H]2CC(O[Si](C)(C)C(C)(C)C)O[C@@H]1CC(=O)O[C@H](C)CC/C=C/C=C/[C@H](O[C@H]1CC[C@H](N(C)C)[C@@H](C)O1)[C@H](C)C2 (stereo partly specified)
- MIC (Staphylococcus aureus [18]): 8 mg/L (≈ 6.44 µM)
- MIC (Staphylococcus aureus [19]): 8 mg/L (≈ 6.44 µM)
- MIC (Staphylococcus aureus [20]): 8 mg/L (≈ 6.44 µM)

- MIC (Bacillus subtilis [9]): 0.167 µM (≈ 0.1 µg/mL)
- MIC (Staphylococcus aureus [10]): 0.167 µM (≈ 0.1 µg/mL)
- MIC (Pseudomonas aeruginosa [11]): 0.167 µM (≈ 0.1 µg/mL)
- MIC (Aspergillus brasiliensis): 0.167 µM (≈ 0.1 µg/mL)
- MIC (Candida albicans [12]): 0.167 µM (≈ 0.1 µg/mL)
Compound: COc1ccc(NC(=O)Cn2cc(COc3ccc(OCc4cn(CC(=O)Nc5ccc(OC)cc5)nn4)cc3)nn2)cc1

- IC50 (HepG2): 11.6 mg/L (≈ 21.1 µM)
Compound: COC(=O)c1ccc(-n2nc(N)c(C(=O)NCCNC(=O)c3nn(-c4ccc(C(=O)OC)cc4)nc3N)n2)cc1
- zone of inhibition at 5000 µg/mL (Bacillus cereus): 20.4 mm
- zone of inhibition at 5000 µg/mL (Staphylococcus aureus [13]): 20.4 mm
- zone of inhibition at 5000 µg/mL (Pseudomonas aeruginosa [14]): 20.4 mm
- zone of inhibition at 5000 µg/mL (Escherichia coli [15]): 20.4 mm
- zone of inhibition at 5000 µg/mL (Aspergillus fumigatus): 20.4 mm
- zone of inhibition at 5000 µg/mL [16]: 20.4 mm
- zone of inhibition at 5000 µg/mL (Geotrichum candidum): 20.4 mm
- zone of inhibition at 5000 µg/mL (Candida albicans [17]): 20.4 mm

- MIC (Bacillus subtilis [1]): 18.8 mg/L (≈ 34.4 µM)
- MIC (Staphylococcus aureus [2]): 18.8 mg/L (≈ 34.4 µM)
- MIC [3]: 18.8 mg/L (≈ 34.4 µM)
- MIC (Escherichia coli [4]): 18.8 mg/L (≈ 34.4 µM)
- MIC (Pseudomonas aeruginosa [5]): 18.8 mg/L (≈ 34.4 µM)
- MIC (Klebsiella pneumoniae): 18.8 mg/L (≈ 34.4 µM)
Compound: COc1ccc(-n2cc(Cn3cc(C(=O)N4CCCCC4)c(=O)c4cc(F)c(N5CCCCC5)cc43)nn2)cc1

Compound: CCn1cc(C(=O)O)c(=O)c2cc(F)c(N3CCNCC3)cc21 [NORFLOXACIN]
- zone of inhibition at 1000 µg/mL (Bacillus subtilis [21]): 2.5 mm
- zone of inhibition at 1000 µg/mL (Staphylococcus aureus [22]): 2.5 mm
- zone of inhibition at 1000 µg/mL (Pseudomonas aeruginosa [23]): 2.5 mm
- zone of inhibition at 1000 µg/mL (Escherichia coli [24]): 2.5 mm
- MIC (Klebsiella pneumoniae): 9.38 mg/L (≈ 29.4 µM)
